Test results: PubChem BioAssay (NCI)
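Method: 48-hour compound exposure of cells in 96-well plates, five concentrations, linear interpolation of endpoints. Here, GI50 denotes the concentration required for 50% inhibition of growth. At the TGI there is no net growth.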

Legend:
Test in all cases: NCI-60 cell line screen, 48 h
HCC-2998 colon = test system: HCC-2998 colon
HCT-15 colon = test system: HCT-15 colon
IGROV1 ovarian = test system: IGROV1 ovarian
KM12 colon = test system: KM12 colon
LOX IMVI melanoma = test system: LOX IMVI melanoma
NCI-H23 lung = test system: NCI-H23 lung
SK-MEL-2 melanoma = test system: SK-MEL-2 melanoma
A498 renal = test system: A498 renal
DU-145 prostate = test system: DU-145 prostate
T-47D breast = test system: T-47D breast

| Structure (SMILES) | TGI (HCC-2998 colon) [µM] | TGI (HCT-15 colon) [µM] | TGI (IGROV1 ovarian) [µM] | TGI (KM12 colon) [µM] | TGI (LOX IMVI melanoma) [µM] | TGI (NCI-H23 lung) [µM] | TGI (SK-MEL-2 melanoma) [µM] | GI50 (HCC-2998 colon) [µM] | GI50 (HCT-15 colon) [µM] | GI50 (IGROV1 ovarian) [µM] | GI50 (KM12 colon) [µM] | GI50 (LOX IMVI melanoma) [µM] | GI50 (SK-MEL-2 melanoma) [µM] | TGI (A498 renal) [µM] | TGI (DU-145 prostate) [µM] | GI50 (A498 renal) [µM] | GI50 (DU-145 prostate) [µM] | GI50 (NCI-H23 lung) [µM] | GI50 (T-47D breast) [µM] | TGI (T-47D breast) [µM] |
| --- | --- | --- | --- | --- | --- | --- | --- | --- | --- | --- | --- | --- | --- | --- | --- | --- | --- | --- | --- | --- |
| CC(=O)/C(=C\C1=CCCO1)C(=O)Nc1ccccc1C | > 100 | > 100 | > 100 | > 100 | > 100 | > 100 | > 100 | – | – | – | – | – | – | – | – | – | – | – | – | – |
| CC/C(=C(/CC)c1ccc(O)cc1)c1ccc([O-])cc1.CC/C(=C(/CC)c1ccc(O)cc1)c1ccc([O-])cc1.O=C([CH-]C(=O)c1ccccc1)c1ccccc1.O=C([CH-]C(=O)c1ccccc1)c1ccccc1.[Ti+4] | 24.6 | 32.3 | 37.7 | 35.1 | 27.5 | – | 25.2 | 12.2 | 6.8 | 16.1 | 12.5 | 12.5 | 11.9 | – | – | – | – | – | – | – |
| CN1CCCCCC(=N\O)/C(=N/O)CCCCC1 | – | > 100 | > 100 | > 100 | > 100 | > 100 | – | – | – | – | – | – | – | > 100 | > 100 | – | – | – | – | – |
| O=c1[nH]ccc2nc(N3CCC(O)CC3)nc(Nc3cccc(C(F)(F)F)c3)c12 | 38.4 | 31.6 | – | 5.42 | 16.6 | 13.9 | – | 11.2 | 0.543 | – | 1.44 | 1.42 | – | > 100 | 19.3 | 2.5 | 1.56 | 3.24 | 3.11 | 26.1 |
| O=C1NC2CCC(C2)C1c1ccccc1 (stereo not drawn) | > 100 | – | > 100 | > 100 | > 100 | > 100 | – | – | – | – | – | – | – | > 100 | – | – | – | – | – | – |
| COC(=O)C12CC(c3ccccc31)C1C(=O)OC(=O)C12 (stereo not drawn) | > 100 | > 100 | > 100 | > 100 | > 100 | > 100 | > 100 | – | – | – | – | – | – | – | – | – | – | – | – | – |
| CCN(CC)CCNC(=O)c1nn(C)c(=S)[nH]c1=S | > 100 | > 100 | > 100 | > 100 | > 100 | > 100 | > 100 | – | – | – | – | – | – | – | – | – | – | – | – | – |
| Cc1cc(N2CCN(c3ccnc4cc(Cl)ccc34)CC2)nc(NC2CCCCC2)n1 | 3.84 | 3.44 | 5.35 | 6.27 | 3.19 | 8.37 | – | 2 | 1.55 | 2.35 | 2.56 | 1.73 | – | 3.21 | 11.2 | 0.118 | 3.51 | 3.04 | 1.89 | 4.7 |
| COc1ccc(-c2ccc(/C=N/n3c(COc4ccc(Cl)cc4Cl)nn(CN4CCN(C)CC4)c3=S)o2)c([N+](=O)[O-])c1 | – | 35.4 | > 100 | 36.5 | 25.2 | 30.6 | – | – | 17 | 45 | 15.1 | 11.4 | – | 5.1 | > 100 | 2.28 | 17.1 | 13.3 | 11.7 | 53.2 |
| Nc1nc(=S)[nH]c(C(=O)Nc2ccc(Cl)c(Cl)c2)c1-c1ccc(Cl)cc1 | > 100 | > 100 | > 100 | > 100 | > 100 | > 100 | – | – | – | – | – | – | – | > 100 | – | – | – | – | – | – |
| Cc1ccc(NC(=O)CCC/C(CC(=O)c2ccc(Br)cc2)=N/NC(=O)CC#N)cc1 | > 100 | – | > 100 | > 100 | > 100 | > 100 | > 100 | – | – | – | – | – | – | – | – | – | – | – | – | – |
| C[C@]12CC[C@H](OCCC#N)CC1=CC[C@@H]1C2CC[C@]2(C)/C(=N/OCCC#N)CCC12 (stereo partly drawn) | > 100 | > 100 | > 100 | > 100 | > 100 | > 100 | > 100 | – | – | – | – | – | – | > 100 | – | – | – | – | – | – |
| Cc1cccc(C)c1NC(=O)CCc1nnc2s/c(=C\c3ccc(Cl)cc3)c(=O)n12 | > 100 | 36.2 | > 100 | > 100 | > 100 | > 100 | > 100 | – | – | – | – | – | – | > 100 | – | – | – | – | – | – |
| Cc1ccc(-c2nc(N)nc3c2nnn3Cc2cccc(CO[C@H]3CCOC3)n2)o1 | > 100 | > 100 | > 100 | > 100 | > 100 | > 100 | > 100 | > 100 | > 100 | > 100 | > 100 | > 100 | > 100 | > 100 | > 100 | 69.9 | > 100 | > 100 | – | – |
| CN(C)CC/C(=N\Nc1ccccc1)c1ccccc1 | 58.9 | 27.6 | > 100 | 18.3 | – | > 100 | 27.2 | – | – | – | – | – | – | – | – | – | – | – | – | – |
| CC[Si](CC)(CC)OC[C@]1([C@@H]2COC(C)(C)O2)CC=CC(=O)O1 | – | > 100 | – | > 100 | 81 | > 100 | > 100 | – | 35.7 | – | 34.3 | 25 | 41.1 | 75.7 | > 100 | 20.9 | 82.9 | 23.3 | > 100 | > 100 |
| O=C1c2ccccc2C2(O)NC(=S)N(c3ccccc3)C12O (stereo not drawn) | > 100 | > 100 | > 100 | > 100 | > 100 | > 100 | > 100 | – | – | – | – | – | – | – | – | – | – | – | – | – |
| CCC[CH2][Sn]([CH2]CCC)([O]C(=O)C(N)CSC)[O]C(=O)C(N)CSC (stereo not drawn) | 30.5 | 25.4 | 34.2 | 29.4 | 26.3 | 13.1 | 8.79 | 13.1 | 11.6 | 17.8 | 13.3 | 7.17 | 2.78 | – | – | 3.91 | – | 2.75 | – | – |
| COc1cc(C(=O)C/C(CCC(=O)Nc2ccc(Cl)cc2C)=N/NC(=O)C(N)=O)ccc1O | > 100 | > 100 | > 100 | > 100 | > 100 | > 100 | > 100 | – | – | – | – | – | – | > 100 | – | – | – | – | – | – |
| CC(=O)N/C(=C\c1cccc([N+](=O)[O-])c1)c1nc2c3c(ccc2[nH]1)C(=O)c1ccccc1C3=O | > 100 | > 100 | > 100 | > 100 | > 100 | > 100 | > 100 | – | – | – | – | – | – | > 100 | – | – | – | – | – | – |
